Measurements taken from patent US9187474B2, “Raf inhibitor compounds” (Deciphera Pharmaceuticals, LLC, priority 2012, dated 2015).
pIC50: −log10 of the molar value. Counter-ions that a name gives are not always drawn.

Key:
A375res cells [1] = assay: Proliferation assay in vemurafenib-resistant A375res melanoma cells; details: Homo sapiens, 72 h, read-out: absolute IC50 values
From the text: (§1) A vemurafenib-resistant cell line is generated by chronic treatment of the human melanoma cell line A375 (ATCC) harboring the B-Raf V600E mutation with increasing concentrations PLX4720.

A375res cells [2] = tested on: A375res cells
From the text: as §1

[3] = tested on: phospho-ERK in HCT-116 cells; assay: HCT-116 cell pERK assay (AlphaScreen SureFire); type: cell-based; details: Homo sapiens; HCT-116 cells, B-Raf wild type, K-Ras mutation; 4 hours; read-out: IC50 reduction of phospho-ERK signal
Method: Examples of Formula I are tested against HCT-116 cells harboring wild type B-Raf and K-Ras mutation. The phospho-ERK activities are evaluated as described below.
HCT-116 cells (catalog #CCL-247) are obtained from the American Type Culture Collection (ATCC, Manassas, Va.). Briefly, cells are grown in McCoy's 5A supplemented with 10% characterized fetal bovine serum (Invitrogen, Carlsbad, Calif.), and 1% Penicillin/Streptomycin/L-Glutamine at 37 degrees Celsius, 5% CO2, and 95% humidity. Cells are allowed to expand until reaching 75-90% confluency at which point they are subcultured or harvested for assay use. HCT-116 cells suspended in complete media are added to 384-well tissue culture treated plates (3×10^5 cells/mL; 7,500 cells per well). The cells are incubated overnight at 37 degrees Celsius, 5% CO2, and 95% humidity. Next, test compound or DMSO diluted in complete media is added to the wells (0.25% final DMSO concentration). The plates are then incubated for 4 hours at 37 degrees Celsius, 5% CO2, and 95% humidity. Following compound incubation, the cells are lysed at 4° C. for 20 minutes with shaking Cell lysates are centrifuged and the supernatant is transferred to a new plate. An aliquot of each lysate is transferred to a white 384-well assay plate. Using the AlphaScreen SureFire pERK kit (Perkin-Elmer, Waltham, Mass.), an acceptor bead mixture is added to each well and incubated for 2 h at room temperature in the dark. A donor bead mixture is then added to each well and incubated for 2 h at room temperature in the dark. Plates are read using a Synergy2 plate reader (Biotek, Winooski, Vt.) in Plate Mode with Timing Control. Read: (F)1: excitation: 680/30 nm, emission: Plug. 2: Excitation: Plug, emission: 570/100 nm. Top mirror 635 nm. Data is analyzed using Prism software (Graphpad, San Diego, Calif.) to calculate IC50 values and Excel software (Microsoft, Redmond, Wash.) to calculate stimulation compared to control.

SMILES	pIC50 (A375res cells [1])	IC50 shift A375 to A375res (A375res cells [2])	pIC50 [3]
CNc1cc2nc(C)c(-c3cc(NC(=O)NC(C)CC(C)(C)C)c(F)cc3C)cc2cn1 (centres unmarked) [Example 59, 1-(4,4-dimethylpentan-2-yl)-3-(2-fluoro-4-methyl-5-(2-methyl-7-(methylamino)-1,6-naphthyridin-3-yl)phenyl)urea]	6.30 to 8.05	0.5-4.9 fold	–
CNc1cc2nc(C)c(-c3cc(NC(=O)NCC(O)C(C)C)c(F)cc3C)cc2cn1 (centres unmarked) [Example 60, 1-(2-fluoro-4-methyl-5-(2-methyl-7-(methylamino)-1,6-naphthyridin-3-yl)phenyl)-3-(2-hydroxy-3-methylbutyl)urea]	6.30 to 8.05	0.5-4.9 fold	–
CNc1cc2nc(C)c(-c3cc(NC(=O)N[C@H]4CC[C@@](C)(C#N)CC4)c(F)cc3C)cc2cn1 [Example 26, 1-(cis-4-cyano-4-methylcyclohexyl)-3-(2-fluoro-4-methyl-5-(2-methyl-7-(methylamino)-1,6-naphthyridin-3-yl)phenyl)urea]	6.30 to 8.05	0.5-4.9 fold	–
CNc1cc2nc(C)c(-c3cc(NC(=O)NCC4CCCCC4)c(F)cc3C)cc2cn1 [Example 29, 1-(cyclohexylmethyl)-3-(2-fluoro-4-methyl-5-(2-methyl-7-(methylamino)-1,6-naphthyridin-3-yl)phenyl)urea hydrochloride]	6.30 to 8.05	0.5-4.9 fold	–
Cc1cc(F)c(NC(=O)NCCC(C)(C)F)cc1-c1cnc2cc(N)ncc2c1 [Example 81, 1-(5-(7-amino-1,6-naphthyridin-3-yl)-2-fluoro-4-methylphenyl)-3-(3-fluoro-3-methylbutyl)urea]	6.30 to 8.05	0.5-4.9 fold	–
Cc1cc(F)c(NC(=O)NCCC(C)(C)C)cc1-c1cc2cnc(N)cc2nc1C [Example 129, 1-(5-(7-amino-2-methyl-1,6-naphthyridin-3-yl)-2-fluoro-4-methylphenyl)-3-(3,3-dimethylbutyl)urea hydrochloride]	6.30 to 8.05	–	7.02 to 8.70
Cc1cc(F)c(NC(=O)NC2CCCCCC2)cc1-c1cc2cnc(N)cc2nc1C [Example 82, 1-(5-(7-amino-2-methyl-1,6-naphthyridin-3-yl)-2-fluoro-4-methylphenyl)-3-cycloheptylurea]	6.30 to 8.05	0.5-4.9 fold	–
CNc1cc2nc(C)c(-c3cc(NC(=O)NCCCC(C)(F)F)c(F)cc3C)cc2cn1 [Example 99, 1-(4,4-difluoropentyl)-3-(2-fluoro-4-methyl-5-(2-methyl-7-(methylamino)-1,6-naphthyridin-3-yl)phenyl)urea hydrochloride]	6.30 to 8.05	0.5-4.9 fold	–
CNc1cc2nc(C)c(-c3cc(NC(=O)N[C@H]4C[C@@](C)(F)C4)c(F)cc3C)cc2cn1 [Example 100, 1-(3-fluoro-trans(3-methylcyclobutyl))-3-(2-fluoro-4-methyl-5-(2-methyl-7-(methylamino)-1,6-naphthyridin-3-yl)phenyl)urea]	6.30 to 8.05	0.5-4.9 fold	–
CNc1cc2nc(C)c(-c3cc(NC(=O)NCC(O)C(F)(F)F)c(F)cc3C)cc2cn1 (centres unmarked) [Example 61, 1-(2-fluoro-4-methyl-5-(2-methyl-7-(methylamino)-1,6-naphthyridin-3-yl)phenyl)-3-(3,3,3-trifluoro-2-hydroxypropyl)urea]	6.30 to 8.05	0.5-4.9 fold	–
CNc1cc2nc(C)c(-c3cc(NC(=O)N[C@H](C)CC(C)(C)C)c(F)cc3C)cc2cn1 [Example 72, (R)-1-(4,4-dimethylpentan-2-yl)-3-(2-fluoro-4-methyl-5-(2-methyl-7-(methylamino)-1,6-naphthyridin-3-yl)phenyl)urea]	6.30 to 8.05	0.5-4.9 fold	–
CNc1cc2nc(C)c(-c3cc(NC(=O)N[C@H]4CC[C@](C)(C#N)CC4)c(F)cc3C)cc2cn1 [Example 25, 1-(trans-4-cyano-4-methylcyclohexyl)-3-(2-fluoro-4-methyl-5-(2-methyl-7-(methylamino)-1,6-naphthyridin-3-yl)phenyl)urea]	6.30 to 8.05	0.5-4.9 fold	–
Cc1nc2cc(NC(=O)C3CC3)ncc2cc1-c1cc(NC(=O)NCCC2CC2)c(F)cc1F [Example 123, N-(3-(5-(3-(2-cyclopropylethyl)ureido)-2,4-difluorophenyl)-2-methyl-1,6-naphthyridin-7-yl)cyclopropanecarboxamid hydrochloride]	6.30 to 8.05	0.5-4.9 fold	–
CNc1cc2nc(C)c(-c3cc(NC(=O)NCCC4(OC)CC4)c(F)cc3F)cc2cn1 [Example 28, 1-(2,4-difluoro-5-(2-methyl-7-(methylamino)-1,6-naphthyridin-3-yl)phenyl)-3-(2-(1-methoxycyclopropyl)ethyl)urea]	6.30 to 8.05	0.5-4.9 fold	–
COC(C)(C)CCNC(=O)Nc1cc(-c2cc3cnc(N)cc3nc2C)c(C)cc1F [Example 80, 1-(5-(7-amino-2-methyl-1,6-naphthyridin-3-yl)-2-fluoro-4-methylphenyl)-3-(3-methoxy-3-methylbutyl)urea hydrochloride]	6.30 to 8.05	0.5-4.9 fold	–

Results, then the molecule that gave them:

pIC50 (A375res cells [1])	IC50 shift A375 to A375res (A375res cells [2])	pIC50 [3]	SMILES
6.30 to 8.05	0.5-4.9 fold	–	Cc1cc(F)c(NC(=O)NCCC(C)(C)C#N)cc1-c1cc2cnc(N)cc2nc1C [Example 44, 1-(5-(7-amino-2-methyl-1,6-naphthyridin-3-yl)-2-fluoro-4-methylphenyl)-3-(3-cyano-3-methylbutyl)urea]
6.30 to 8.05	0.5-4.9 fold	–	CNc1cc2nc(C)c(-c3cc(NC(=O)NCCCC(C)(C)F)c(F)cc3C)cc2cn1 [Example 101, 1-(2-fluoro-4-methyl-5-(2-methyl-7-(methylamino)-1,6-naphthyridin-3-yl)phenyl)-3-(4-fluoro-4-methylpentyl)urea hydrochloride]
6.30 to 8.05	0.5-4.9 fold	–	CNc1cc2nc(C)c(-c3cc(NC(=O)NCCCC(C)(C)OC)c(F)cc3C)cc2cn1 [Example 33, 1-(2-fluoro-4-methyl-5-(2-methyl-7-(methylamino)-1,6-naphthyridin-3-yl)phenyl)-3-(4-methoxy-4-methylpentyl)urea hydrochloride]
6.30 to 8.05	0.5-4.9 fold	–	CNc1cc2nc(C)c(-c3cc(NC(=O)NCCC4(OC)CC4)c(F)cc3C)cc2cn1 [Example 31, 1-(2-fluoro-4-methyl-5-(2-methyl-7-(methylamino)-1,6-naphthyridin-3-yl)phenyl)-3-(2-(1-methoxycyclopropyl)ethyl)urea hydrochloride]
6.30 to 8.05	0.5-4.9 fold	–	CCOC(C)(C)CCNC(=O)Nc1cc(-c2cc3cnc(NC)cc3nc2C)c(C)cc1F [Example 30, 1-(3-ethoxy-3-methylbutyl)-3-(2-fluoro-4-methyl-5-(2-methyl-7-(methylamino)-1,6-naphthyridin-3-yl)phenyl)urea hydrochloride]
6.30 to 8.05	0.5-4.9 fold	–	Cc1cc(F)c(NC(=O)NCCC(C)(C)F)cc1-c1cc2cnc(NCCO)cc2nc1C [Example 65, 1-(3-fluoro-3-methylbutyl)-3-(2-fluoro-5-(7-((2-hydroxyethyl)amino)-2-methyl-1,6-naphthyridin-3-yl)-4-methylphenyl)urea]
6.30 to 8.05	0.5-4.9 fold	–	CNc1cc2nc(C)c(-c3cc(NC(=O)NCCCC(F)(F)F)c(F)cc3C)cc2cn1 [Example 91, hydrochloride]
6.30 to 8.05	0.5-4.9 fold	–	CNc1cc2nc(C)c(-c3cc(NC(=O)NCCC4CCC4)c(F)cc3C)cc2cn1 [Example 97, 1-(2-cyclobutylethyl)-3-(2-fluoro-4-methyl-5-(2-methyl-7-(methylamino)-1,6-naphthyridin-3-yl)phenyl)urea hydrochloride]
6.30 to 8.05	0.5-4.9 fold	–	CNc1cc2ncc(-c3cc(NC(=O)NCCC(C)(C)OC)c(F)cc3C)cc2cn1 [Example 32, 1-(2-fluoro-4-methyl-5-(7-(methylamino)-1,6-naphthyridin-3-yl)phenyl)-3-(3-methoxy-3-methylbutyl)urea]
6.30 to 8.05	0.5-4.9 fold	–	CNc1cc2nc(C)c(-c3cc(NC(=O)NCCC4(C)CC4)c(F)cc3C)cc2cn1 [Example 27, 1-(2-fluoro-4-methyl-5-(2-methyl-7-(methylamino)-1,6-naphthyridin-3-yl)phenyl)-3-(2-(1-methylcyclopropyl)ethyl)urea hydrochloride]
